Results taken from PubChem BioAssay (NCI).
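Here, GI50 denotes the concentration required for 50% inhibition of growth. Definition used: TGI = concentration required for complete inhibition of growth.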

Legend:
Experiment in all cases: NCI-60 cell line screen, 384-well format
[1] = test system: HCT-116 colon
[2] = test system: K-562 leukemia
[3] = test system: MCF7 breast
[4] = test system: HCT-15 colon
[5] = test system: NCI-H226 lung
[6] = test system: LOX IMVI melanoma
[7] = test system: MOLT-4 leukemia
[8] = test system: M14 melanoma
[9] = test system: HOP-92 NSCLC
[10] = test system: SNB-19 CNS
[11] = test system: UACC-62 melanoma
[12] = test system: SR leukemia
[13] = test system: RXF 393 renal
[14] = test system: SK-OV-3 ovarian
[15] = test system: SNB-75 CNS
[16] = test system: KM12 colon
[17] = test system: U251 glioblastoma
[18] = test system: HT29 colon
[19] = test system: SN12C renal
[20] = test system: NCI-H522 lung
[21] = test system: OVCAR-8 ovarian
[22] = test system: MDA-MB-435 melanoma
[23] = test system: UO-31 renal
[24] = test system: MDA-MB-468 breast
[25] = test system: NCI/ADR-RES ovarian
[26] = test system: IGROV1 ovarian
[27] = test system: SF-268 CNS
[28] = test system: SK-MEL-5 melanoma
[29] = test system: EKVX NSCLC
[30] = test system: TK-10 renal
[31] = test system: ACHN renal
[32] = test system: DU-145 prostate
[33] = test system: SF-295 CNS
[34] = test system: OVCAR-5 ovarian
[35] = test system: T-47D breast
[36] = test system: PC-3 prostate
[37] = test system: MDA-MB-231 breast
[38] = test system: HS 578T breast
[39] = test system: OVCAR-3 ovarian
[40] = test system: SF-539 CNS
[41] = test system: MALME-3M melanoma
[42] = test system: RPMI-8226 leukemia
[43] = test system: CAKI-1 renal
[44] = test system: HCC-2998 colon
[45] = test system: SW-620 colon
[46] = test system: 786-0 renal
[47] = test system: SK-MEL-2 melanoma

Q: How did the GI50 [1] turn out when `O=S(=O)(c1ccc2c(c1)C(=NO)c1cc(S(=O)(=O)N3CCCCC3)ccc1-2)N1CCCCC1` was run?
A: 173 nM

Q: What about the TGI [1] of the same molecule?
A: 316 nM

Q: What about the GI50 [2] of the same molecule?
A: 170 nM

Q: And the TGI [2]?
A: 313 nM

Q: What about the GI50 [3] of the same molecule?
A: 187 nM

Q: And the TGI [3]?
A: 334 nM

Q: And the GI50 [4]?
A: 186 nM

Q: And the TGI [4]?
A: 333 nM

Q: What about the GI50 [5] of the same molecule?
A: 168 nM

Q: And the TGI [5]?
A: 309 nM

Q: What about the GI50 [6] of the same molecule?
A: 17.2 nM

Q: What about the TGI [6] of the same molecule?
A: 32 nM

Q: What about the GI50 [7] of the same molecule?
A: 168 nM

Q: What about the TGI [7] of the same molecule?
A: 306 nM

Q: And the GI50 [8]?
A: 170 nM

Q: What about the TGI [8] of the same molecule?
A: 308 nM

Q: And the GI50 [9]?
A: 116 nM

Q: What about the TGI [9] of the same molecule?
A: 242 nM

Q: And the GI50 [10]?
A: 189 nM

Q: What about the TGI [10] of the same molecule?
A: 332 nM

Q: And the GI50 [11]?
A: 182 nM

Q: What about the TGI [11] of the same molecule?
A: 323 nM

Q: What about the GI50 [12] of the same molecule?
A: 158 nM

Q: And the TGI [12]?
A: 294 nM

Q: What about the GI50 [13] of the same molecule?
A: 118 nM

Q: What about the TGI [13] of the same molecule?
A: 242 nM

Q: What about the GI50 [14] of the same molecule?
A: 169 nM

Q: What about the TGI [14] of the same molecule?
A: 308 nM

Q: And the GI50 [15]?
A: 184 nM

Q: And the TGI [15]?
A: 324 nM

Q: And the GI50 [16]?
A: 177 nM

Q: And the TGI [16]?
A: 329 nM

Q: And the GI50 [17]?
A: 189 nM

Q: What about the TGI [17] of the same molecule?
A: 341 nM

Q: What about the GI50 [18] of the same molecule?
A: 184 nM

Q: What about the TGI [18] of the same molecule?
A: 326 nM

Q: And the GI50 [19]?
A: 181 nM

Q: And the TGI [19]?
A: 323 nM

Q: And the GI50 [20]?
A: 172 nM

Q: What about the TGI [20] of the same molecule?
A: 314 nM

Q: And the GI50 [21]?
A: 153 nM

Q: And the TGI [21]?
A: 288 nM

Q: What about the GI50 [22] of the same molecule?
A: 183 nM

Q: And the TGI [22]?
A: 323 nM

Q: And the GI50 [23]?
A: 16 nM

Q: What about the TGI [23] of the same molecule?
A: 29.8 nM

Q: And the GI50 [24]?
A: 58.4 nM

Q: And the TGI [24]?
A: 171 nM

Q: And the GI50 [25]?
A: 342 nM

Q: And the TGI [25]?
A: 1140 nM

Q: And the GI50 [26]?
A: 162 nM

Q: What about the TGI [26] of the same molecule?
A: 306 nM

Q: What about the GI50 [27] of the same molecule?
A: 165 nM

Q: What about the TGI [27] of the same molecule?
A: 303 nM

Q: What about the GI50 [28] of the same molecule?
A: 184 nM

Q: And the TGI [28]?
A: 359 nM

Q: What about the GI50 [29] of the same molecule?
A: 115 nM

Q: And the TGI [29]?
A: 241 nM

Q: What about the GI50 [30] of the same molecule?
A: 187 nM

Q: And the TGI [30]?
A: 336 nM

Q: And the GI50 [31]?
A: 17.6 nM

Q: And the TGI [31]?
A: 31.6 nM

Q: And the GI50 [32]?
A: 177 nM

Q: And the TGI [32]?
A: 318 nM

Q: What about the GI50 [33] of the same molecule?
A: 176 nM

Q: And the TGI [33]?
A: 316 nM

Q: What about the GI50 [34] of the same molecule?
A: 184 nM

Q: And the TGI [34]?
A: 324 nM

Q: What about the GI50 [35] of the same molecule?
A: 155 nM

Q: What about the TGI [35] of the same molecule?
A: 290 nM

Q: And the GI50 [36]?
A: 165 nM

Q: And the TGI [36]?
A: 303 nM

Q: And the GI50 [37]?
A: 139 nM

Q: What about the TGI [37] of the same molecule?
A: 270 nM

Q: And the GI50 [38]?
A: 175 nM

Q: What about the TGI [38] of the same molecule?
A: 314 nM

Q: And the GI50 [39]?
A: 146 nM

Q: What about the TGI [39] of the same molecule?
A: 281 nM

Q: What about the GI50 [40] of the same molecule?
A: 174 nM

Q: What about the TGI [40] of the same molecule?
A: 317 nM

Q: What about the GI50 [41] of the same molecule?
A: 179 nM

Q: What about the TGI [41] of the same molecule?
A: 321 nM

Q: What about the GI50 [42] of the same molecule?
A: 106 nM

Q: What about the TGI [42] of the same molecule?
A: 226 nM

Q: What about the GI50 [43] of the same molecule?
A: 19 nM

Q: What about the TGI [43] of the same molecule?
A: 35.2 nM

Q: What about the GI50 [44] of the same molecule?
A: 166 nM

Q: And the TGI [44]?
A: 303 nM

Q: What about the GI50 [45] of the same molecule?
A: 182 nM

Q: And the TGI [45]?
A: 323 nM

Q: What about the GI50 [46] of the same molecule?
A: 223 nM

Q: And the TGI [46]?
A: 525 nM

Q: What about the GI50 [47] of the same molecule?
A: 196 nM

Q: What about the TGI [47] of the same molecule?
A: 339 nM
